We go through 1 compound from US20040101521A1, “Iron sequestration or elimination to reduce neurodegeneration or Parkinsons disease progression” (The Buck Institute for Research on Aging, priority 2002, published 2004).

The conditions of series [1]: Phase II, similar dosage, with B12 supplementation; cited from earlier work.
The test system of series [2] is MPTP-mediated oxidative stress. Kind of series: Slot blot of 4-HNE-protein conjugates and protein carbonyls in SN after MPTP. Particulars: CQ pretreated animals, 24 hrs after MPTP, n=6. The class given is in vivo, mouse. As for the experimental part:
SN were dissected and homogenized in 10 mM HEPES-KOH, pH 7.2, 2 mM EDTA, 0.1% CHAPS, 5 mM dithiothreitol (DTT), 1 mM phenylmethylsulfonyl fluoride, 10 μg/ml pepstatin A, 10 μg/ml aprotinin, and 20 μg/ml leupeptin (Nicholson et al. (1995) Nature 376: 37-43). 15 μg of total protein from each sample was either run on a 15% SDS-PAGE gel (BioRad) and transferred to nitrocellulose membrane or directly slotted onto membrane. […] Autoradiography was performed with enhanced chemiluminescence (Amersham Pharmacia). For 4HNNE-protein conjugates and protein carbonyls, relative optical band density were quantified using a Chemilmager 5500 (Alpha Innotech Corporation). Reported values are the results of three independent experiments.

The subject of series [3] is monoamine oxidase-B. Kind of series: MAO-B activity in brain homogenates. The settings on record: CQ-fed, n=4. The class given is in vivo, mouse. As for the experimental part: Brain homogenates were analyzed by the toulene extraction method using 10 μM 14-C labeled PEA as substrate (NEN, […]) as previously described (Wei et al. (1996) J. Neurosci. Res. 46: 666-673; Wei et al. (1997) J. Neurosci. Res. 50: 618-626). Values are reported as cpm/μg protein.

For series [4] the following is noted: Yassin et al. 2000; cited from earlier work.
The conditions of series [5]: mouse, in vivo; cited from earlier work.
Series [6] is described as follows: Open field analysis of spontaneous motor activity. The class given is in vivo, mouse. The settings on record: mice fed CQ up to 8 weeks vs. saline-fed, n=8. On the procedure:
6-8 mice in each category were tested. Behavioral parameters were monitored in a Coulbourn Instrument Tru Scan activity monitor. Motor activities were recorded every 100 ms for a 10 minute period. Tru Scan 99 software was used to generate experimental protocols and to acquire and store the data. The data was exported to EXCEL and analyzed via one way ANOVA.

Series [7] in a line: Total SN iron content by mass spectrometry and MRI in CQ-fed mice. The class given is in vivo, mouse. The settings on record: CQ 30 mg/kg daily oral gavage, 8 weeks, C57B1 mice. As for the experimental part:
Mice were housed according to standard animal care protocols, fed ad libitum, kept on a 12-hr light/dark cycle and maintained in a pathogen-free environment in the Buck Institute Vivarium. Animals used for studies were young adults (2-6 months of age). […] For CQ studies, C57B1 mice were obtained from Jackson Labs and randomized for therapy trials. CQ was suspended in 0.05% carboxymethylcellulose (Sigma) and delivered via oral gavage at a daily dosage of 30 mg/kg as previously described for a period of 8 weeks (Cherny et al. (2001) Neuron 30: 665-676); controls received vehicle alone.
MRI studies were performed using a Bruker AMX500 11.7 tesla MRI system as previously described (Gilissen et al. (1998) Am. J. Primatol. 45: 291-299). Brains were fixed as described above and MRI performed in the coronal plane. Comparisons of SN hypointensity (dark area) on T2-weighted MR samples encompassing SNc, SNr, and red nucleus were performed (IPLab Spectrum, Scientific Image Processing from Scanalytics, Inc.)(Morgan et al., 1998). Intensity was normalized using cortical white matter as control.
SN was dissected, snap frozen in liquid nitrogen, lypholized and dry weight/tissue measured. Preweighed lypholized samples were next taken up in 0.1 ml of concentrated nitric acid (Aristar, BDH) and allowed to digest overnight. […]

The test system of series [8] is MPTP-induced toxicity. Put plainly: Striatal dopamine, DOPAC and HVA by HPLC after MPTP. The class given is in vivo, mouse. As for the experimental part:
(§1) Animals were injected with either 15 mg/kg body weight MPTP or saline every 2 hrs, 4 doses. Dopamine, DOPAC, and HVA or MPP+ from dissected striata were analyzed by I-PLC using a 5 micrometer C-18 reverse phase column and precolumn (Brownlee Labs) followed by electrochemical detection with a glassy carbon electrode (Klivenyi et al. (2000) J. Neurosci. 20: 1-7).

The test system of series [9] is MPTP-induced oxidative stress. Put plainly: SN GSH levels after MPTP. Particulars: CQ pretreated animals, 24 hrs after MPTP, n=6. The class given is in vivo, mouse. As for the experimental part:
Following MPTP or saline injection, GSH levels were measured in the SN by the method of Griffith (Griffith (1980) Anal. Biochem. 106; 207-212).

The test system of series [10] is MPTP-induced dopaminergic SN cell loss. Put plainly: Stereological TH+ SN neuron counts after MPTP. The class given is in vivo, mouse. As for the experimental part: Neuronal counts were performed on TH+ positive SN neurons using the unbiased dissector method (West (1993) Neurobiol. Aging 14: 275-285). Fixed coronal brain sections (40 μm) were immunostained with TH antibody (1:500 dilution, Chemicon), coverslipped in aqueous medium and TH+ cells counted from a total of 15-20 sections in each field per brain (i.e. every second section) at a magnification of 100× using the optical fractionator approach.
as §1

For series [11] the following is noted: lipophilic; cited from earlier work.
The subject of series [12] is plaque formation. Particulars: Cherny et al. 2001; cited from earlier work.

For the compound `Oc1c(I)cc(Cl)c2cccnc12` [CQ, 5-chloro-7-iodo-8-hydroxyquinoline], in [1], the “Adverse effects attributable to CQ administration” value was “No adverse effects”. For the same compound, in series [2], the “Change in 4-HNE-protein conjugates in SN following MPTP” value is “no significant changes” and the “Change in protein carbonyl levels in SN following MPTP” value is “no significant changes”. This compound displayed an MAO-B activity in series [3] of 4500±950 cpm/μg protein. In series [4], the “Depletion in systemic iron levels” value is “does not result in depletion”; the “Levels of brain and serum vitamin B12” value is recorded as “lower levels”. Further, the “Toxicity of the compound in mice” value in [5] is “lack of toxicity”. In addition, in series [6], the “Adverse behavioral effects in open field tests” value was “no significant signs of adverse behavioral effects”. Moreover, in series [7], the “Reduction of total SN iron levels, CQ-fed vs. saline-fed animals” value is listed as “approximately 30%”. In addition, in series [8] (absence of MPTP treatment), the “Difference in striatal dopamine levels, saline vs. CQ-fed” value was “No significant difference”. In addition, the “Loss of striatal dopamine following MPTP” value in [8] (animals pretreated with CQ, 7 days after MPTP) is 41%. In series [9], the “Change in SN GSH following MPTP” value is on record as “no significant changes”. In addition, the “Decrease in SN TH+ cell numbers following MPTP” value in series [10] (CQ-fed animals, 7 days after MPTP) worked out at 25%. In addition, the “SN TH+ cell numbers” value in series [10] (CQ-fed, MPTP-treated, n=5) is given as 11,462±915. For the same compound, the Blood-brain barrier passage entry in [11] is listed as “freely crosses the blood-brain barrier”. Also, the “Plaque formation and behavioral declines in AD transgenic mouse model” value in series [12] is “inhibit plaque formation and accompanying behavioral declines”.
